Laboratory results from patent US10227324B2 (Shanghai Haiyan Pharmaceutical Technology Co., Ltd., priority 2014, dated 2019).

What was measured:
[1] = system: Akt phosphorylation (Ser473-p-Akt) in PC-3 cells; assay: Inhibition of p-Akt phosphorylation level in PC-3 cells (cell level fluorescence imaging); format: cell-based; details: Homo sapiens; Akt phosphorylation in PC-3 cells, 2 hours incubation; read-out: PC-3 cell (IC50/nM)
Method in brief: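 Inhibition was computed from p-Akt(Ser473) immunofluorescence scaled to DMSO-treated wells (full signal) and 10 μM BEZ235 wells (background). Cells were treated for 2 h with an 8-point, 3-fold series from 0.0046 to 10 μM in duplicate before fixation, antibody staining with PI counterstain, and plate imaging.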

[2] = Metabolism stability assay in liver microsomes; format: in vitro ADME, mouse; details: liver microsomal metabolism in mice
Method: Buffer A: 1 L solution of 100 mM potassium dihydrogen phosphate containing 1 mM EDTA (Sigma, V900157-100G) was prepared. Buffer B: 1 L solution of 100 mM dipotassium hydrogen phosphate containing 1 mM EDTA was prepared. Buffer C: 700 mL of buffer B was taken out and titrated with buffer A to pH 7.4.
2.1 10 μl of 10 mM compound to be tested and 10 μl of 10 mM ketanserin were taken out and 190 μl of pure acetonitrile was added to each of them to prepare 500 μM compound to be tested and ketanserin, respectively.
2.2 20 μl (20 mg/mL) of liver microsomes (XENOTECH, H0610) stock solution was added to 513.4 μl of buffer C on wet ice. 0.75 mg/mL liver microsomal solution was obtained.
2.3 1.5 μl of each of the above-mentioned compound to be tested and ketanserin solution was added to 498.5 μl of liver microsomal solution (0.7 5 mg/mL) respectively on wet ice. 1.5 μM mixed solution of compound to be tested and 1.5 μM mixed solution of ketanserin were obtained.
2.4 At the time points 0, 5, 15, 30, 45, and 60 min, 30 μl of the mixed solution of compound to be tested and 30 μl of the mixed solution of ketanserin were dispensed into the reaction plate on wet ice, respectively.
2.5 5 mg reduced coenzyme II (Roche, 10621706001) was weighed and dissolved in 1 mL of buffer C. 6 mM reduced coenzyme II solution was obtained. The reduced coenzyme II solution was dispensed into the reaction plate.
2.6 Imipramine was dissolved to give a 10 mM solution. 10 μl imipramine solution was added to 100 mL of blank acetonitrile to generate the internal reference.
2.7 At 0 min, 135 μL of iced acetonitrile (Merck, UN 1648) containing the internal reference was added to each well and then 15 μL of buffer C was added.
2.8 The reaction plate was placed into a 37° C. water bath incubator for 5 min. In the reaction plate, 15 μL of reduced coenzyme II solution was added to each well to initiate the reaction, and the time keeping was started. At the time points of 5, 15, 30, 45, and 60 min, 135 μL of iced acetonitrile containing the internal reference was added to each well to terminate the reaction.
2.9 The reaction plate was sealed with an aluminum film, placed on a vibration mixer and shaken at 500 rpm for 5 min. The plate was then centrifuged in a centrifuge at 3750 rp for 15 min.
2.10 The sample was diluted with pure water in accordance with the ratio of 1:1 and detected by LC/MS.
Half-life: 0.693/K (the slope by plotting based on the incubation time and logarithm of the concentration value)
Clearance ratio: (0.693/half-life)*(1/protein concentration (0.5 mg/mL))*(proportional factor)
Wherein, the K value and the proportional factor were calculated by those skilled in the art according to the methods described in the prior art and contained in the instructions of the liver microsome product.

T47D cells = assay: Cell inhibitory activity detected by MTT assay, T47D; format: cell-based; details: Homo sapiens, T47D, 72 h, read-out: T47D cell (IC50/nM), cell growth inhibition

- IC50 [1]: 369 nM
- Clearance ratio (mL/min/kg) mouse [2]: 39.75 mL/min/kg
- IC50 (T47D cells): 62 nM
SMILES: CS(=O)(=O)C1(c2cc(-c3cnc(N)cc3F)nc(N3CCOCC3)n2)CC1 [Compound S-82]
